The values below come from PubChem BioAssay (NCI).

Among the test systems are HOP-62 NSCLC; HS 578T breast; K-562 leukemia; M14 melanoma; NCI-H226 lung; OVCAR-5 ovarian; RPMI-8226 leukemia; SF-268 CNS; KM20L2 colon; SNB-78 CNS.
Experiment in all cases: growth of human tumour cells (NCI), 48 h

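Assay format: 96-well plates, 48-hour exposure. At the GI50, growth is halved. TGI: concentration producing complete growth inhibition.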 Some results are limits rather than exact numbers.

`O=C(CCCCCCSc1nc(-c2ccccc2)cc(-c2ccc(Cl)cc2)n1)NO`: the GI50 is 1960 nM with HOP-62 NSCLC; 2760 nM in the assay on HS 578T breast; 1660 nM in the assay with K-562 leukemia; 1950 nM with M14 melanoma; 2.59 µM in the assay with NCI-H226 lung; 1560 nM in the assay with OVCAR-5 ovarian. Moreover, the GI50 in the assay on RPMI-8226 leukemia was 640 nM; in the assay with SF-268 CNS, 2440 nM. Moreover, the TGI with HOP-62 NSCLC was determined as 5.24 µM; in the assay with HS 578T breast it was 20.1 µM; in the assay on K-562 leukemia, 10.8 µM; in the assay with M14 melanoma it was 6.53 µM; in the assay on NCI-H226 lung it was 11.8 µM; in the assay on OVCAR-5 ovarian, 5.42 µM. Moreover, the TGI with RPMI-8226 leukemia worked out at 6.19 µM; with SF-268 CNS, 6.75 µM.
For the compound `COc1ccc(N=C2CSc3nnc(-c4cc(F)c(Cl)cc4Cl)n3N2)cc1`, the GI50 is 458 nM in the assay on HOP-62 NSCLC; 1500 nM in the assay on HS 578T breast; 515 nM in the assay on K-562 leukemia; 572 nM with M14 melanoma; 3.84 µM in the assay with NCI-H226 lung; 1900 nM in the assay on OVCAR-5 ovarian. Moreover, the values for the GI50 with RPMI-8226 leukemia and with SF-268 CNS were 1410 nM and 1690 nM, respectively. Moreover, the TGI in the assay with HOP-62 NSCLC is 2.77 µM; in the assay on HS 578T breast, 9 µM; in the assay on K-562 leukemia, 18.1 µM; in the assay with M14 melanoma, 8.27 µM; in the assay on NCI-H226 lung, 38.2 µM; with OVCAR-5 ovarian, 4.57 µM. Besides, the TGI in the assay on RPMI-8226 leukemia was found to be 11 µM; in the assay on SF-268 CNS it was 21.7 µM.
Consider `CC1=C(C(=O)Nc2c(C)cccc2C)C(c2ccc3c(c2)OCO3)C(C(=O)Nc2c(C)cccc2C)=C(C)N1`, for which the TGI in the assay with HOP-62 NSCLC worked out at 44 µM; with K-562 leukemia, 73 µM; in the assay with KM20L2 colon, 29 µM; with M14 melanoma it was 33.9 µM; in the assay with NCI-H226 lung, 32.3 µM; in the assay on OVCAR-5 ovarian, 33.7 µM. The TGI with SF-268 CNS amounted to 48.5 µM; with SNB-78 CNS, 78.8 µM.
On to `O=C(Nc1ccc(N2CCNCC2)cc1)c1[nH]ncc1Nc1ncnc2sc3c(c12)CCC3`, for which the GI50 is 621 nM in the assay with HOP-62 NSCLC; 99.4 nM in the assay with HS 578T breast; 115 nM in the assay with K-562 leukemia; 146 nM in the assay with M14 melanoma; 0.548 µM with NCI-H226 lung; 330 nM in the assay with OVCAR-5 ovarian. Also, the GI50 with RPMI-8226 leukemia was 670 nM; with SF-268 CNS it was 890 nM. For the same compound, the TGI was 2.79 µM in the assay with HOP-62 NSCLC; 2.08 µM in the assay with HS 578T breast; 0.472 µM in the assay on K-562 leukemia; 1.64 µM in the assay on M14 melanoma; 2.56 µM in the assay on NCI-H226 lung; 1.92 µM with OVCAR-5 ovarian. Besides, the results for the TGI in the assay with RPMI-8226 leukemia and with SF-268 CNS were 3.58 µM and 2.76 µM, respectively.
For `COc1cc(O)c([C@@H]2C[C@H](CCc3ccc(O)cc3)O[C@H](c3ccc(O)cc3)C2)c(O)c1C(=O)/C=C/c1ccc(O)cc1`, the GI50 in the assay with HOP-62 NSCLC is 2770 nM; in the assay with HS 578T breast it was 2530 nM; with K-562 leukemia, 2320 nM; in the assay with M14 melanoma, 3240 nM; in the assay with NCI-H226 lung it was 7.04 µM; in the assay on OVCAR-5 ovarian, 3810 nM. The GI50 was 2110 nM in the assay with RPMI-8226 leukemia and 2860 nM in the assay with SF-268 CNS. For the same compound, the TGI in the assay on HOP-62 NSCLC worked out at 6.02 µM; in the assay with HS 578T breast, 15.4 µM; with K-562 leukemia it was 6.24 µM; with M14 melanoma, 9.3 µM; in the assay on NCI-H226 lung, 21.5 µM; with OVCAR-5 ovarian, 12.5 µM. Besides, the values for the TGI with RPMI-8226 leukemia and in the assay with SF-268 CNS were 4.68 µM and 24.4 µM, respectively.
Turning to `COc1cc2c(cc1OC)C(=O)/C(=C/c1cccc(OCC(=O)c3ccccc3)c1)C2`, the GI50 is 35800 nM in the assay with HOP-62 NSCLC; 13100 nM in the assay with HS 578T breast; 3110 nM in the assay on K-562 leukemia; 34200 nM in the assay on M14 melanoma; 20.2 µM in the assay with NCI-H226 lung; 73900 nM in the assay on OVCAR-5 ovarian. The GI50 in the assay on RPMI-8226 leukemia is 1400 nM; with SF-268 CNS it was 15300 nM. The TGI is over 100 µM in the assay on HOP-62 NSCLC; 75.2 µM with HS 578T breast; over 100 µM with K-562 leukemia; over 100 µM in the assay on M14 melanoma; over 100 µM in the assay on NCI-H226 lung; over 100 µM in the assay on OVCAR-5 ovarian. The TGI with RPMI-8226 leukemia was 3.9 µM; with SF-268 CNS it was 63.3 µM.
Regarding `COC(=O)N[C@H]1CCc2c(Br)c(OC)c(OC)c(OC)c2-c2ccc(SC)c(=O)cc21`, the GI50 in the assay with HOP-62 NSCLC is under 10 nM; with HS 578T breast it was under 10 nM; in the assay with K-562 leukemia, under 10 nM; in the assay on M14 melanoma it was under 10 nM; in the assay with NCI-H226 lung it was under 0.01 µM; in the assay with OVCAR-5 ovarian, under 10 nM. Moreover, the GI50 in the assay with RPMI-8226 leukemia and in the assay with SF-268 CNS was under 10 nM in each case. For the same compound, the TGI is over 100 µM in the assay on HOP-62 NSCLC; over 52.1 µM in the assay on HS 578T breast; 15.9 µM in the assay on K-562 leukemia; 8.53 µM in the assay with M14 melanoma; 10.8 µM in the assay on NCI-H226 lung; over 39.6 µM with OVCAR-5 ovarian. Further, the values for the TGI with RPMI-8226 leukemia and in the assay on SF-268 CNS were 5.84 µM and 16.6 µM, respectively.
As to `O=C(CN1CCN(c2ncccn2)CC1)Nc1ccc(Cl)cc1C(=O)c1ccccc1Cl`, the GI50 with HOP-62 NSCLC was 13200 nM; in the assay with HS 578T breast, 83600 nM; with K-562 leukemia it was 32000 nM; in the assay with M14 melanoma, over 100000 nM; in the assay on NCI-H226 lung, over 100 µM; in the assay with OVCAR-5 ovarian it was over 100000 nM. Besides, the figures for the GI50 in the assay with RPMI-8226 leukemia and in the assay with SF-268 CNS were 9510 nM and over 100000 nM, respectively. For the same compound, the TGI is 57.5 µM in the assay with HOP-62 NSCLC; over 100 µM in the assay with HS 578T breast; over 100 µM in the assay on K-562 leukemia; over 100 µM in the assay on M14 melanoma; over 100 µM in the assay on NCI-H226 lung; over 100 µM in the assay on OVCAR-5 ovarian. Besides, the TGI in the assay with RPMI-8226 leukemia and with SF-268 CNS was over 100 µM in each case.
Take `O=C(O)c1c(-c2cccc3ccccc23)sc(-c2cccc3ccccc23)c1C(=O)O`: the TGI in the assay with K-562 leukemia, in the assay on KM20L2 colon, with M14 melanoma, in the assay with NCI-H226 lung, with OVCAR-5 ovarian and in the assay with RPMI-8226 leukemia was over 100 µM throughout. The TGI in the assay with SF-268 CNS and in the assay on SNB-78 CNS was over 100 µM throughout.
As to `COC(=O)C1CC2(CC3=C1CCCC3)OCCO2` (centres undefined), the TGI in the assay with HOP-62 NSCLC, in the assay on K-562 leukemia, in the assay with M14 melanoma, in the assay on RPMI-8226 leukemia, with SF-268 CNS and with SNB-78 CNS was over 100 µM in each case.
